# Biological target: Methyl-CpG-binding domain protein 2 (Homo sapiens, UniProt Q9UBB5)
# Assay: MBD2-DBD methyl-oligonucleotide interaction blockers – biochemical, 5-meCpG oligonucleotide, dose response (AID 720645)
# Sequence of Methyl-CpG-binding domain protein 2 (Q9UBB5 whole entry, the tested form may be a part): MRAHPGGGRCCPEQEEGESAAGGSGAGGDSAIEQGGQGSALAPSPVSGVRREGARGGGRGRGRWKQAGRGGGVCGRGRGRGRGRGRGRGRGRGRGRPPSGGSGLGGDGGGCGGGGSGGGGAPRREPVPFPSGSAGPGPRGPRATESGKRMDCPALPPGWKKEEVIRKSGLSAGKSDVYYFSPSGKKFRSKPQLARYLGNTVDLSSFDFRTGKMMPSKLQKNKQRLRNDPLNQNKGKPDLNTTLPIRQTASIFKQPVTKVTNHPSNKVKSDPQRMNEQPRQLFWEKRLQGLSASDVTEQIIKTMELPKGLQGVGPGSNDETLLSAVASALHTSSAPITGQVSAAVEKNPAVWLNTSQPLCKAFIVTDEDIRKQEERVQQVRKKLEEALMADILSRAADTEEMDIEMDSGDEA
row,IC50 [µM],Compound
1,4.87,O=C(O)CSc1cc(NS(=O)(=O)c2ccc(Cl)cc2)c2ccccc2c1O [2-[4-[(4-chlorophenyl)sulfonylamino]-1-hydroxynaphthalen-2-yl]sulfanylacetic acid]
2,43.8,"COc1cc(C(c2c(C)[nH][nH]c2=O)c2c(C)[nH][nH]c2=O)cc([N+](=O)[O-])c1O [4-[(3-methoxy-5-nitro-4-oxidanyl-phenyl)-(3-methyl-5-oxidanylidene-1,2-dihydropyrazol-4-yl)methyl]-5-methyl-1,2-dihydropyrazol-3-one]"
3,4.78,"COc1ccc(-c2csc(/C(C#N)=C/C3C=CC(=O)C([N+](=O)[O-])=C3)n2)cc1OC (centres undefined) [(E)-2-[4-(3,4-Dimethoxy-phenyl)-thiazol-2-yl]-3-(4-hydroxy-3-nitro-phenyl)-acrylonitrile]"
4,8.02,Cc1ccc2c(Cl)c(Cc3ccccc3)c(=S)[nH]c2n1 [MLS001182542]

# From BindingDB's records for doi:10.7270/Q20K2778 (The Scripps Research Institute Molecular Screening Center, 2013)
